Measured values from patent US6335466B1, “Fluorinated amino polyhedral borate compounds” (Colorado State University Research Foundation, priority 2000, dated 2002).
“And” between values parts separate entries of the source, which are not always exact repeats. Identical values can stand only once.

Key:
[1] = Olefin polymerization catalyst activator test; conditions: 20 μmole Zr, Zr/A/Al 1/4/250, MAO; listed as C
Description: All solvents used in synthesis and polymerization experiments were obtained when possible as anhydrous grade and further purified as described below. Diethyl ether, hexanes and toluene were obtained from Aldrich Chemical Company (Milwaukee, Wis.) in Sure Seal® bottles as anhydrous grade. Solvents were further purified by passing through columns packed with activated A2 alumina and Q-5 catalyst which had been reduced tbennally under hydrogen. Methylliium in aiethyl ether, zirconecene dichloride, pentamethylcyclopentadienyl zirconium dichloride and methylaluminoxane (10 wt. % in toluene) were obtained from Aldrich Chemical Company and used without further purification. Methyllithium was titrated with an aqueous HCl standard (Aldrich Chemical Company) against a phenolphthalein indicator in order to determine the concentration prior to use. Tris(perfluorophenyl)borate (i.e., B2 borate) was obtained as a research sample from Albermarle (Baton Rouge, La.) (Lot # 29779501-10) and used without further purification.
The solvent for polymerization experiments was 2,2,4-trimethylpentane (i.e., iso-octane) which was obtained from Aldrich Chemical Company in 18 L Stainless Steel Kilo Lab® Cylinders as anhydrous grade. The polymerization solvent was further purified by passing through columns packed with activated 13× molecular sieves and Q-5 catalyst. Periodic checks were performed on the water content of the solvent by Karl Fischer Columbmetric Titration and determined to contain 3 ppm or less water after purification. Solids were stored, weighed and transferred in glove box equipped with a catalyst train under dry nitrogen. Polymerization stock solutions and compositions were prepared in septum fitted bottles in a glove box. All solutions were freshly prepared for each set of evaluations.
All solutions were prepared in a glove box under dry nitrogen in a glass narrow mouth bottle fitted with a septum. This solution was prepared by the dissolution of 63 mg of Cp2ZrMe2 in 50 mL of dry, nitrogen degassed toluene. The complex was completely miscible in the solvent. […]

[2] = comparison species; cited from earlier work
[3] = Conductivity of glyme (DME) solutions; assay type: physicochemical
Description: A calibrated Yellow Springs model 3403 conductivity cell (cell constant k=1.113) and a model 31 conductivity bridge were employed. The measurements were made in a nitrogen-filled glove box. […] The concentration dependence of the conductivity of a lithium salt in a dilute solution is expected to be linear. The conductivity of a 0.01 M glyme solution of LiB12F11NMe3 is therefore expected to be about 78 μS cm^−1. The conductivity of a 0.0050 M glyme solution LiB12F11NMe3 is approximately ten times higher than the conductivity of a 0.010 M glyme solution of lithium triflate (4 μS cm−1).
The conductivities of solutions of Li(Dd3NB12F11) and Li(Bn2HNB12F11) (the latter sample was contaminated with about 15% Li(BnH2NB12F11)) were measured using a similar procedure as that of Example 25. A calibrated Yellow Springs model 3403 conductivity cell (cell constant k=0.98 cm−1) and a Yellow Springs model 31 conductivity bridge was employed. The measurements were made in a nitrogen-filled glove box. The conductivities of glyme solutions of Li(Dd3NB12F11), Li(Bn2HNB12F11), and lithium salts of related anions are listed in Table 2.

[4] = Solubility in organic solvents and water; assay type: physicochemical
[5] = lithium salts, 0.0100 M DME solutions, 25° C., nitrogen atm.

Q: With `Fc1c(F)c(F)c(OB(Oc2c(F)c(F)c(F)c(F)c2F)Oc2c(F)c(F)c(F)c(F)c2F)c(F)c1F` [B2 borate, Tris(perfluorophenyl)borate] as the molecule, how does the “Final Rate C2H4 uptake” value [1] read?
A: 0.7 g/m and 0.9 g/m and 1.3 g/m and 0.8 g/m

Q: And the “Max Exotherm” value [1]?
A: 1 °C and 2 °C

Q: And the “Max Rate C2H4 uptake” value [1]?
A: 26.3 g/m and 21.7 g/m and 16.3 g/m and 24.9 g/m and 31.3 g/m

Q: Which “pKa value of selected acids” value [2] does the source give for `S` [HS^−1] here?
A: 19.0

Q: Which conductivity [3, 5] does the source give for `F[P-](F)(F)(F)(F)F.[Li+]` [LiPF6] here?
A: 73 μS cm−1

Q: With `CCCCN` [NH3Bu^+1] as the molecule, how does the “pKa value of selected acids” value [2] read?
A: 10.8

Q: With `CN` [NH3Me^+1] as the molecule, how does the “pKa value of selected acids” value [2] read?
A: 10.7

Q: With `CCCC[N+](CCCC)(CCCC)CCCC.F[B-](F)(F)F` [[NBu4][BF4]] as the molecule, how does the “solubility in water relative to [NBu4][H3NB12F11]” value [4] read?
A: higher solubility

Q: For `O=S(=O)([O-])C(F)(F)F.[Li+]` [lithium triflate], which conductivity ([3]; 0.010 M glyme solution) is on record?
A: 4 μS cm^−1

Q: What about the conductivity [3, 5] of the same molecule?
A: 4 μS cm−1
